Data on 2 molecules can be found in PMC4601640, “Stability of the Human Hsp90-p50^Cdc37 Chaperone Complex against Nucleotides and Hsp90 Inhibitors, and the Influence of Phosphorylation by Casein Kinase 2” (Molecules, 2015).

For orientation: pIC50 means the IC50 on a negative log10 scale, so that one unit is a factor of ten. The pKd is the negative decadic logarithm of the Kd, by convention in mol/L.

Assay [1] has as its target T1, ΔHsp90β interaction with GST-p50^Cdc37 (Homo sapiens, UniProt P08238, DEL220-271/E274G/I272G/K273G/K275G).
T1 construct: human Hsp90β (1-724 Δ220-275); made in house; host or cells: E. coli BL21 Star (DE3) (ΔHsp90β); E. coli BL21 (DE3) (GST-p50Cdc37)
The assay is described as follows: GST pull-down of ΔHsp90β with GST-p50^Cdc37. It counts as binding. Here is the method:
GST pull-down experiments were carried out using 1 mL GST 4 FastFlow resin in 8 mL Flex columns (Kontes). All experiments were performed at room temperature by gravity flow. Loading and wash buffers contained 50 mM Tris pH 8, 50 mM KCl, 5 mM MgCl2, and 5% DMSO. The elution buffer contained an additional 10 mM reduced glutathione. […] The resin was washed with 20 CV wash buffer, and samples were eluted with 2 CV elution buffer. Eluted protein was analysed on 12% SDS-PAGE stained with Coomassie blue for visualization.

The next assay has as its target T2, hHsp90β-FL (Homo sapiens, UniProt P08238).
T2 construct: The gene encoding human full-length Hsp90β was subcloned from T47D cell line cDNA; His6 (N); made in house; host or cells: E. coli BL21 Star (DE3)
The assay is described as follows: ITC direct binding to full-length Hsp90β. As to conditions: Figure 3. The protocol: (§1) Binding of p50^Cdc37 and small molecules to Hsp90 was analyzed using a MicroCal iTC200 titration calorimeter (GE Healthcare). Compounds or p50^Cdc37 were titrated into a solution of Hsp90 using the following concentrations: p50^Cdc37 (200 µM) into Hsp90 (20 µM), nucleotides (600 µM) into Hsp90 (30 µM), inhibitors (300 µM) into Hsp90 (30 µM). […] All experiments were conducted in 50 mM HEPES pH 7.5, 10 mM MgCl2 at 30 °C. For titration of inhibitors, the buffer contained 5% DMSO. […] Generation of heat due to dilution was determined in separate experiments by diluting protein into buffer and subtracting these as blank values for each injection. Corrected heat values were fitted using a nonlinear least squares curve-fitting algorithm (Microcal Origin 7.0) to obtain the stoichiometry (n), binding constants (Ka, Kd), and change in enthalpy for each enzyme-ligand interaction (ΔH).

The target of a further assay is T3, ΔHsp90-p50^Cdc37 (Homo sapiens, UniProt P08238, DEL220-271/E274G/I272G/K273G/K275G).
T3 construct: human Hsp90β (1-724 Δ220-275); made in house; host or cells: E. coli BL21 Star (DE3) (ΔHsp90β); E. coli BL21 (DE3) (GST-p50Cdc37)
T3 sequence (P08238 with tags, fused parts or gaps DEL220-271/I272G/K273G/E274G/K275G): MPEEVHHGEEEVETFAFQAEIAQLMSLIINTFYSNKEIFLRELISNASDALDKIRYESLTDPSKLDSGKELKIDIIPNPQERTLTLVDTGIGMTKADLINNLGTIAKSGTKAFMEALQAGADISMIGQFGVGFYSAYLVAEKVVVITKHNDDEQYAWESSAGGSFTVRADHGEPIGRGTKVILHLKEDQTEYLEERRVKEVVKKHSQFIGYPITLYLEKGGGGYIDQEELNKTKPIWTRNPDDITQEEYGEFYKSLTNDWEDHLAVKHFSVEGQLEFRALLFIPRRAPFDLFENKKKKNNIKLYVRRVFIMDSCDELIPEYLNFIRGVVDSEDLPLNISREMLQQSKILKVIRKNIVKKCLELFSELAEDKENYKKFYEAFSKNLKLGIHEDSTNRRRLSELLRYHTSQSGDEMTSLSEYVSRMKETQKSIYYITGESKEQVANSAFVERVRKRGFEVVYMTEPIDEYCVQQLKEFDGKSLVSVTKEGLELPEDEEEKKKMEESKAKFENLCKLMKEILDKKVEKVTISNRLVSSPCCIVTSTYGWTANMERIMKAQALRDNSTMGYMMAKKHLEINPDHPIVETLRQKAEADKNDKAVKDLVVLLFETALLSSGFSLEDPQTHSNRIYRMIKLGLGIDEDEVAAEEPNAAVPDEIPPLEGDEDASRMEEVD
The assay is described as follows: ELISA complex formation, ΔHsp90. It is filed as binding. In general terms: In an ELISA, binding on a coated surface is turned into a signal by an enzyme label.

For the next assay, the target named is (p)Hsp90-p50^Cdc37 (Homo sapiens, UniProt P08238). The assay is described as follows: ELISA complex formation, CK2-phosphorylated Hsp90β.
Sequence of (p)Hsp90-p50^Cdc37 (P08238 whole entry): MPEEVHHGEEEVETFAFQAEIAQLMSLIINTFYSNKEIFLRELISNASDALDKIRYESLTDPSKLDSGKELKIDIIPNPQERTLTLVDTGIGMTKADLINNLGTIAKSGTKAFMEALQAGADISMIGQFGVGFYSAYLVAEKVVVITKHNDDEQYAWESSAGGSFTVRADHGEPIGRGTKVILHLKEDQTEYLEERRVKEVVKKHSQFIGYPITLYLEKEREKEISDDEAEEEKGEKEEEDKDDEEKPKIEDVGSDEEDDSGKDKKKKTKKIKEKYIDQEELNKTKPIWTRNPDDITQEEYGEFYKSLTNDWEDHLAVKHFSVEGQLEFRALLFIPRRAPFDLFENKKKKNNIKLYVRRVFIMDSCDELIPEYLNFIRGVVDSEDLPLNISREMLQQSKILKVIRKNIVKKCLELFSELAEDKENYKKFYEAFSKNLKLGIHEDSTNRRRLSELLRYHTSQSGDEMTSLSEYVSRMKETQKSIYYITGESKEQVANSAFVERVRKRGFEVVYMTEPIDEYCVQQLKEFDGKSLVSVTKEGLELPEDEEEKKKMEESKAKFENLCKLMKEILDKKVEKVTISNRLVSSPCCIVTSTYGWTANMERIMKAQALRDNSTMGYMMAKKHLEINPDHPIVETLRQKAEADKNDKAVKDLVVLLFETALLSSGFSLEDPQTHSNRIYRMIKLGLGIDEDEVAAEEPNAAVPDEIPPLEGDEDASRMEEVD
A further assay concerns the target (p)Hsp90-(p)p50^Cdc37 (Homo sapiens, UniProt P08238). The assay is described as follows: biochemical.
For another assay, the target named is T4, Hsp90-p50^Cdc37 (Homo sapiens, UniProt P08238).
T4 construct: The gene encoding human full-length Hsp90β was subcloned from T47D cell line cDNA; made in house; host or cells: E. coli BL21 Star (DE3) (Hsp90β); E. coli BL21 (DE3) (GST-p50Cdc37)
The assay is described as follows: ELISA complex formation, immobilized GST-p50^Cdc37 and Hsp90β, unphosphorylated. It counts as binding.

The target in a further assay is T5, hHsp90β-N (Homo sapiens, UniProt P08238).
T5 construct: human N-terminal Hsp90β (1-219, denoted Hsp90β-N); His6 (N); made in house; host or cells: E. coli BL21 Star (DE3)
T5 sequence (P08238 1-219): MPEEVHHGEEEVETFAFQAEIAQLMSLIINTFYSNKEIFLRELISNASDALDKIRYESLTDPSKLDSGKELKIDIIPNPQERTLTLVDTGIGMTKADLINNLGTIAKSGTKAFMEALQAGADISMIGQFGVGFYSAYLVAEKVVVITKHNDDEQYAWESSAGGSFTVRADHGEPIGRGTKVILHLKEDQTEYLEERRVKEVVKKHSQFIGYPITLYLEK
The assay is described as follows: ITC direct binding to N-terminal domain of Hsp90β. The following applies: 30 °C, read-out: Observed Kd. From the text: The gene encoding human full-length Hsp90β was subcloned from T47D cell line cDNA, and human full-length CK2α was subcloned from MCF7 cell line cDNA, both a kind gift from Dr. Jonathan Lancaster, Moffitt Cancer Center. The genes encoding the deletion mutants human Hsp90α (1-732 Δ226-283), human Hsp90β (1-724 Δ220-275), human N-terminal Hsp90β (1-219, denoted Hsp90β-N), and human full-length p50^Cdc37 (residues 1-378) were synthesized by GeneArt AG with optimized codon usage for E. coli expression. The deleted sections in the two Hsp90 genes were each replaced by four glycine residues. […]
Binding of p50^Cdc37 and small molecules to Hsp90 was analyzed using a MicroCal iTC200 titration calorimeter (GE Healthcare). […] Typically, an initial 0.5 µL injection was followed by 19 injections of 2.2 µL of syringe solution (compound or p50^Cdc37) into a 200 µL protein solution of Hsp90 constantly stirred at 1000 rpm, and data were recorded for 180 s between injections. Generation of heat due to dilution was determined in separate experiments by diluting protein into buffer and subtracting these as blank values for each injection. […]

For another assay, the target named is T6, hΔHsp90β (Homo sapiens, UniProt P08238, DEL220-271/E274G/I272G/K273G/K275G).
T6 construct: human Hsp90β (1-724 Δ220-275); His6 (N); made in house; host or cells: E. coli BL21 Star (DE3)
T6 sequence (P08238 with tags, fused parts or gaps DEL220-271/I272G/K273G/E274G/K275G): as the sequence (P08238 with tags, fused parts or gaps DEL220-271/I272G/K273G/E274G/K275G) above
The assay is described as follows: ITC direct binding to Hsp90β deletion mutant lacking the charged linker. The following applies: 50 mM HEPES pH 7.5, 10 mM MgCl2, 30 °C, read-out: Observed Kd.
Source text: The gene encoding human full-length Hsp90β was subcloned from T47D cell line cDNA, and human full-length CK2α was subcloned from MCF7 cell line cDNA, both a kind gift from Dr. Jonathan Lancaster, Moffitt Cancer Center. […] The deleted sections in the two Hsp90 genes were each replaced by four glycine residues. Hsp90α and Hsp90β were subcloned into the pET28a vector (Novagen), and p50^Cdc37 was subcloned into a modified pET28a vector containing a maltose-binding protein (MBP) solubility tag and a PreScission protease cleavage site using restriction enzymes BamHI and NotI (Fermentas) and T4 DNA ligase (Invitrogen) following the manufacturers’ instructions. BamHI was substituted with NdeI for full-length Hsp90β. p50^Cdc37 was also subcloned into the pGEX6P-1 vector (GE Healthcare) using the same procedure as above to provide an N-terminal GST-tag for GST pull-down and ELISA experiments. The plasmids were transformed into E. coli BL21 Star (DE3) (Hsp90α and Hsp90β, Invitrogen), Tuner (DE3) (p50^Cdc37 modified pET28a, Novagen), or BL21 (DE3) (p50^Cdc37 pGEX6P-1, Stratagene) expression strains. Transformed cells were grown in LB broth at 37 °C until the OD600 reached 0.4, then the temperature was lowered to 16 °C, and cells were induced with 0.1 mM IPTG at OD600 = 0.5–0.7. Cultures were then grown for 20–24 h before harvesting by centrifugation (30 min at 30,000× g, 4 °C).
as §1

In a further assay the target is yHsp82-FL. The following applies: yHsp82-FL with human p50^Cdc37; ref [30]; read-out: Reported Kd; cited from earlier work.

pIC50, pKd: −log10 of the molar value. Entries after “also recorded” stand apart in the source; their conditions may differ.

T1 sequence (P08238 with tags, fused parts or gaps DEL220-271/I272G/K273G/E274G/K275G): as above
Sequence of (p)Hsp90-(p)p50^Cdc37 (P08238 whole entry): as the sequence (P08238 whole entry) above
Description for (p)Hsp90-(p)p50^Cdc37: (§2) Phosphorylation of full-length Hsp90β and p50^Cdc37 was performed using purified full-length CK2α. The reaction was carried out in a 2.5 mL volume containing 50 µM Hsp90β or p50^Cdc37, 0.5 µM CK2α, 0.5 mM ATP, 20 mM Tris (pH 7.5), 50 mM KCl, and 10 mM MgCl2, and was incubated for 1 h at 30 °C. Samples were removed for analysis of phosphorylation status, and the proteins were re-buffered into 50 mM HEPES (pH 7.5), 150 mM NaCl, and 1 mM DTT (ELISA), or into 50 mM HEPES (pH 7.5) for ITC, using PD-10 gravity columns (GE Healthcare). Dephosphorylation was performed using 2.5 units of FastAP (alkaline phosphatase from Thermo Scientific) in buffer containing 10 mM Tris (pH 8.0 at 37 °C), 5 mM MgCl2, 100 mM KCl, 0.02% Triton-X 100, and 0.5 mg/mL BSA for 1 h at 37 °C.
(§3) Purified GST-p50^Cdc37 (4 µM) or control (purified GST alone, 4 µM) was added to glutathione-coated 96-well plates (Pierce) in 100 μL protein buffer (50 mM HEPES, pH 7.5, 150 mM NaCl, 10 mM MgCl2, 0.05% Tween-20, and 0.1% BSA) and incubated for 1 h at room temperature (triplicate wells per sample). […] The mixtures were then added to the wells (100 μL per well, in triplicates) and incubated for 1 h at room temperature before washing. The wells were incubated with anti-His6-tag mAb (1 mg/mL stock, Abcam), diluted 1:2000 in antibody buffer (50 mM HEPES pH 7.5, 150 mM NaCl, 10 mM MgCl2, 0.05% Tween-20, and 1% BSA) for 1 h, followed by secondary antibody (horse anti-mouse HRP-conjugated IgG, Cell Signaling Technology), diluted 1:5000 in antibody buffer, for 1.5 h at room temperature. After washing three times with 1× HBS-T and two times with 1× HBS, 200 μL HRP substrate (SigmaFast OPD) was added per well. The plates were incubated at room temperature, and the absorbance was read at 450 nm after 15 min and 30 min using a SpectraMax 340 PC plate reader (Molecular Devices). For dose-response measurements, absorption values were corrected for unspecific binding of Hsp90 to immobilized GST, and the raw data were fit to equation (1), where f(I) is the fraction of complex remaining, [I] is the concentration of the inhibitor, IC50 is the half maximal inhibitory concentration against Hsp90-p50^Cdc37 complex formation, n is the Hill slope coefficient, min is the signal remaining at high inhibitor concentrations and max is the signal of the uninhibited complex. Corrected absorption values (ΔOD) for the uninhibited Hsp90-p50^Cdc37 complex (unphosphorylated and phosphorylated) were in the range of 0.4–1.0. Data were expressed relative to the respective max value of Equation (1). (1) f(I)=min+(max−min)/1+([I]/IC50)^n
Description for (p)Hsp90-p50^Cdc37: as §2, §3

Turning to `CC(=O)O[C@@H]1C[C@H]2C(C)(C)C(=O)C=C[C@]2(C)[C@H]2CC[C@@]3(C)[C@H](c4ccoc4)OC(=O)[C@H]4O[C@]43[C@@]21C` [Gedunin], the “effect on complex in GST pull-down” value in [1] (1 mM nucleotide or 0.1 mM inhibitor, 15 min incubation, SDS-PAGE) is on record as “ineffective”. In assay [1] (in the presence of ADP, 0.1 mM radicicol), the “protection of the complex from ADP in GST pull-down competition” value was “had no effect”. The “binding potential towards Hsp90β” value at hHsp90β-FL is “failed to display binding potential”. Further, the pIC50 at ΔHsp90-p50^Cdc37 is less than 3.00; against (p)Hsp90-p50^Cdc37 it was less than 3.00; against (p)Hsp90-(p)p50^Cdc37 it was less than 3.00; against Hsp90-p50^Cdc37 (ELISA, Hsp90-p50^Cdc37 (unphosphorylated)), less than 3.00. On Hsp90-p50^Cdc37 (unphosphorylated or phosphorylated complex, in vitro), the “inhibitory activity against the complex” value was “did not show appreciable inhibitory activity; also recorded: did not affect the interaction of Hsp90 with p50^Cdc37 in vitro”.
In the case of “p50^Cdc37: human full-length co-chaperone protein p50^Cdc37 (residues 1-378), unphosphorylated”, the negative logarithm of the Kd (pKd) was 5.36 with hHsp90β-N, 5.96 with hΔHsp90β and 5.82 on yHsp82-FL.
